Reference: patent publication US9433663B2, “Mobilization of hematopoietic stem cells” (Children's Hospital Medical Center, priority 2008, dated 2016)

Tests used:
[1] = test system: Fancc−/− mice; assay: Example 10 HSC/P mobilization in Fancc−/− mice; conditions: mouse, in vivo
Method: The effects of CASIN on HSC/P mobilization in Fancc−/− mice are investigated under four groups in parallel with WT mice: (1) Control group; (2) G-CSF group: 2.5 μg G-CSF per mouse, twice a day for 4 d120; (3) CASIN group: 2.5 mg/Kg; (4) combination of CASIN and G-CSF: one injection of CASIN is given 40 h before the end of 4 d G-CSF administration.
Fancc−/− or WT mice are mobilized with regimens corresponding to the four experimental groups. Then PB are harvested by cardiac puncture. Phenotypically, the absolute number and percentage of HSC/Ps in PB after mobilization are determined as those of LSK (Lin− Sca+ c-Kit+) cells by flow cytometry. Functionally, CFU-C assay is performed in triplicate for each mouse by using PB of mice from different experimental groups, and CFU-GM, CFU-GEMM, BFU-E, and CFU-E are distinguished by morphology and using cytokine combinations. Furthermore, the long-term repopulation capacity of the mobilized HSCs is evaluated using a competitive repopulating assay and subsequent secondary transplantation as discussed above.

[2] = test system: Lin^−c-Kit^+ BM progenitors; assay: F-actin immunofluorescence in Lin−c-Kit+ BM progenitors; assay type: cell-based, murine; conditions: double-sorted Lin^−c-Kit^+ BM progenitors; CASIN pre-treatment at 5 or 10 μM
Description: (§1) To shed light on potential roles of CASIN in HSPC mobilization, the effects of CASIN on Cdc42-related cellular functions was studied, including adhesion, migration, and F-actin polymerization of progenitor cells in 32D myeloid progenitors. […] SDF-1α stimulation causes a reorganization of F-actin into a cortical ring around the cells. […] Thirdly, to gain further insight into cellular specificity and efficacy of CASIN, and also to rule out possible toxic effects by CASIN, Cdc42-involved BM progenitor cell functions were examined, including proliferation, adhesion, migration, and F-actin polymerization, in Cdc42^+/+ cells in parallel with Cdc42^−/− cells. In line with additional studies in a Cdc42 conditional knockout mouse model as described herein, Cdc42^−/− LDBM cells have increased CFU-forming progenitors compared to those of Cdc42^+/+.
Cells then were stimulated with 100 ng/ml SDF-1α for 45 secs, and further stained with Rhodamine/Phalloidin for actin and DAPI for nucleus as described herein.

[3] = test system: progenitor cells in spleen and liver; assay: CFU-C assays of spleen and liver after treatment; assay type: in vivo, mice; conditions: after CASIN injection
[4] = molecular target: Cdc42 (Homo sapiens, UniProt P60953); assay: Rho GTPase effector pulldown in human CD34+ umbilical cord blood cells, Cdc42; assay type: cell-based; design: endogenous in cells; host or cells: human CD34+ umbilical cord blood cells (HCB); conditions: human CD34^+ HCBs
Method: (§2) To begin to study potential utility of CASIN in human hematopoietic stem cell mobilization, a series of cellular assays were carried out to determine the effects on human CD34^+ umbilical cord blood cells (HCBs). […] The effects of CASIN on human hematopoietic cell mobilization was therefore tested using a well established preclinical in vivo model (NOD/SCID-Hcb) of human hematopoietic function, where fresh CD34^+ hCB cells were transplanted into sub-lethally irradiated NOD/SCIDs by intrafemoral injection, and repopulated and maintained human hematopoietic reconstitution in the bone marrow of NOD/SCID recipient mice (FIG. 9b, FIG. 11) (Larochelle, A. et al. Nat Med 2, 1329-1337 (1996); Bhatia, M., et al. Proc Natl Acad Sci USA 94, 5320-5325 (1997)). Intravenous injections of CASIN were applied when human cells were well engrafted in the NOD/SCID recipients.
To analyze the effects of CASIN on the formation of active GTP-bound Cdc42, RhoA, and Rac1, effector pulldown assays were carried out as described previously. Cdc42GAP^−/− MEF, LDBM, CD34^+ hCB cells were treated with CASIN at doses of 5-20 μM in parallel with vehicle control for 2 hrs after overnight starvation, and stimulated with cytokines subsequently. […]

[5] = test system: human CD34^+ umbilical cord blood cells; assay: adhesion of human CD34+ HCB cells; assay type: cell-based; conditions: 5 μM
Method: FIG. 4B. Relative adhesion of CD34^+ HCB cells in the presence of CASIN at dose of 5 μM in comparison to that of control.
as §2

[6] = test system: 32D myeloid progenitors; assay: adhesion of 32D progenitors to fibronectin fragment CH296; assay type: cell-based, murine; conditions: gradient CASIN treatments
Description: as §1

[7] = molecular target: Cdc42 (Mus musculus, UniProt P60766); assay: Rho GTPase effector pull-down in murine LDBM cells, Cdc42; assay type: cell-based; design: endogenous in cells; host or cells: murine low density bone marrow (LDBM) cells
Method: To analyze the effects of CASIN on the formation of active GTP-bound Cdc42, RhoA, and Rac1, effector pulldown assays were carried out as described previously. Cdc42GAP^−/− MEF, LDBM, CD34^+ hCB cells were treated with CASIN at doses of 5-20 μM in parallel with vehicle control for 2 hrs after overnight starvation, and stimulated with cytokines subsequently. And then cells were lysed in a buffer containing 20 mM Tris-HCL (pH 7.6), 100 mM NaCl, 1% Triton X-100, 10 mM MgCl2, 2 mM NaF, and Protease inhibitor cocktail (Roche Diagnostics). Lysates were incubated with GST-P21-binding domain of PAK1 for RAC1-GTP and Cdc42-GTP, and GST-RBD domain of Rhotekin for RhoA-GTP respectively. Both bound- and unbound-form of Rho GTPases were probed by immunoblotting with antibodies specific for Rac1 (BD biosciences), Cdc42 (BD biosciences), and RhoA (cell signaling).

[8] = test system: WASP; assay: phosphorylation of WASP in 32D progenitors; assay type: cell-based, murine; conditions: FIG. 7D
Description: FIG. 7D. CASIN treatment in 32 progenitors led to dampened phosphorylation of WASP, […].

Cdc42 (Mus musculus, UniProt P60766), sequence (P60766 whole entry, the tested form may be a part): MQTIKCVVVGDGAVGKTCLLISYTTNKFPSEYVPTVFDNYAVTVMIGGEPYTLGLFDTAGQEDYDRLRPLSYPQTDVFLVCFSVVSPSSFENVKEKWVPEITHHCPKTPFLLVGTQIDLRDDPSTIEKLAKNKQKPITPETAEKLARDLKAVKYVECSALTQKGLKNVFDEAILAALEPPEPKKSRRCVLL
Cdc42 (Homo sapiens, UniProt P60953), sequence (P60953 whole entry): as the sequence (P60766 whole entry, the tested form may be a part) above

OCCNC1CCCc2c1[nH]c1ccc(-c3ccccc3)cc21 (stereo not drawn) [CASIN]
mobilization of HSC/Ps (LSK cells, progenitor colonies) in Fancc−/− mice [1]: effective mobilizer
SDF-1α mediated reorganization of F-actin into cortical actin ring [2]: lost their capacities to reorganize F-actin into the cortical actin ring
progenitor cells found in spleen and liver [3]: increased level
Cdc42 activity [4]: specifically inhibit
adhesion activity of human progenitors [5]: significantly dampened
percentages of adherent 32D cells to CH296 [6]: significantly reduced dose-dependently
Cdc42 activity ([7]; pre-treatment at 5 and 10 μM, mixed cytokine stimulation): dose-dependent inhibition
reversibility of Cdc42 activity inhibition ([7]; removal of CASIN by a pre-wash): reversible
phosphorylation of WASP [8]: dampened
